From patent publication US20260183295A1, “METHODS AND COMPOSITIONS FOR TREATING CANCER” (Onconova Therapeutics, Inc., priority 2022, published 2026)

How the values were obtained:
Assay type in all cases: cell-based
[1] = tested on: MDA-MB-231 cells; assay: Annexin V/PI staining followed by FACS, 24 hours; settings: for cell death (Annexin V/PI): Compound 1, Comparator 1, 2 5 μM, Comparator 4 10 μM; for effect of zVAD-FMK on cell death, Annexin V/PI staining: zVAD-FMK 20 μM (FIG. 24)
Experimental: To determine the effect of the different treatment conditions on cell death, Annexin V/PI staining was performed.

[2] = tested on: MDA-MB-231 cells; assay: MTT assay, 24 hours; settings: zVAD-FMK 20 μM (FIG. 25)
[3] = tested on: T-47D, HCC-1937, HS-578T, BT-474, MDA-MB-468, and MD-MB-453 cell lines; assay: MTT cell viability of breast cancer cell line panel versus comparators, 48 hrs (FIG. 17); settings: Comparator 4 10 μM, Comparator 1 and 2 5 μM, Compound 1 2.5, 5.0, 10 μM
[4] = tested on: Caspase 3/7; assay: Caspase 3/7 Glo assay, MDA-MB-231 cells, 24 hours
Experimental: To determine how Compound 1 induces cell death, Caspase 3/7 activity was measured using the Caspase 3/7 Glo assay.
The effect of zVAD-FMK treatment on Caspase 3/7 activity was assessed.

[5] = tested on: Hs578T spheroids; assay: CellTiter Glo 3D spheroid viability; settings: 48 hours; Compound 1, Comparator 1, Comparator 2 5 μM; Comparator 4 10 μM
Experimental: Viability of the spheroids was assessed using CellTiter Glo 3D.

[6] = tested on: HCC-1937; assay: Cell viability after 72 hours treatment; settings: HCC-1937 (TNBC)
Experimental: (§1) The effects on the different treatment conditions on BUB 1 levels and PARP cleavage were also assessed. For both MNA-MB-231 cells, Compound 1 alone or with HCQ or SBI decreased BUB1 levels and cleaved PARP with […] decreases in cell viability observed for all treatments except Compound 1+SBI in MMA-MB-231 cells. The effects of Compound 1 with or without autophagy inhibitors was less pronounced in HCC-1937 cells.

[7] = tested on: MDA-MB-468; assay: Cell viability after 72 hours treatment; settings: MDA-MB-468 (TNBC)
Experimental: as §1

[8] = tested on: Caspase 3/7; assay: Caspase 3/7 Glo assay with or without bafilomycin A1, MDA-MB-231 cells, 2 days; settings: 5 μM
Excerpt: FIGS. 34 and 35 show Caspase 3/7 activity as measured by the Caspase 3/7 Glo assay. […] The effect was enhanced by co-treatment with bafilomycin A1 cotreatment.

[9] = Compound 1, Comparator 1, 2 5 μM, Comparator 4 10 μM (FIG. 22)
[10] = without zVAD-FMK, relative to DMSO (FIG. 26)

SMILES	cell death (Annexin V/PI) [1]	effect of zVAD-FMK on cell death, Annexin V/PI staining [1]	effect of zVAD-FMK on cell death, MTT assay [2]	cell death (MTT), comparison of treatments [3]	Caspase 3/7 activity [4, 9]	Caspase 3/7 activity [4, 10]	effect of zVAD-FMK on induced Caspase 3/7 activity ([4]; zVAD-FMK 20 μM (FIG. 26))	decrease in organoid viability compared to DMSO [5]	72 h-cell viability decrease [6] [%]	72 h-cell viability decrease [7] [%]	Caspase 3/7 activity, compound alone [8]
CC(C)C[C@H](NC(=O)[C@H](Cc1ccccc1)NC(=O)c1cnccn1)B(O)O [Comparator 4, bortezomib]	~55%	partially blocked	partially blocked	induced cell death to the greatest extent	greatest increase	large increase	completely inhibited	significant cell death			
CN(C)C(=O)c1cc2cnc(Nc3ccc(N4CCNCC4)cn3)nc2n1C1CCCC1 [Comparator 2, ribociclib]	neither Comparator 1 nor Comparator 2 treatment induced cell death	similarly unaffected	similarly unaffected		no effect	not increased		no effect			
CCN1CCN(Cc2ccc(Nc3ncc(F)c(-c4cc(F)c5nc(C)n(C(C)C)c5c4)n3)nc2)CC1 [Comparator 3, abemaciclib]									10	50	
CC(=O)c1c(C)c2cnc(Nc3ccc(N4CCNCC4)cn3)nc2n(C2CCCC2)c1=O [Comparator 1, palbociclib]					no effect			no effect	15	10	no effect
